Data: patent US6376505B1, “5-HT1A and 5-HT1Dαdalpha antagonists” (Eli Lilly and Company, priority 1997, dated 2002)
Counter-ions that a name gives are not always drawn.

With `CSc1ccccc1OC[C@@H](O)CN1CCC2(CC1)OCc1c2ccc2c1OCCO2` (as salt: oxalate) the melting point was 180 °C.

With `O[C@H](COc1ccccc1C1CCCC1)CN1CCC2(CC1)OCc1c2ccc2c1OCCO2` (as salt: oxalate) the melting point was 198 to 200 °C.

With `O[C@H](COc1ccccc1C1CCCC1)CN1CCC2(CC1)OCc1c2ccc2c1OCCCO2` (as salt: oxalate) the melting point was 169 to 171 °C.
